≈ marks a conversion by molar mass, not a printed value. Like-named read-outs stand apart in the source and are kept apart here.
Legend:
[1] = test system: Wnt signal; assay: Detection of Wnt signal (TOPglow luciferase reporter, LiCl-stimulated); format: cell-based; details: Homo sapiens; HEK293 clone carrying pNeo-TOP reporter; LiCl stimulation; luciferase luminescence; read-out: Test Example 1 IC50 (concentration required for inhibiting the Wnt signal activity by 50%)
Description: pcDNA3.1(+) (invitrogen) was cleaved with restriction enzymes BglII and NotI, and an adapter BEHKS having a sequence shown below (containing restriction enzyme sites BglII, EcoRI, HindIII, KpnI, SacI and NotI) was inserted thereinto, thereby producing a plasmid pNeo-HKS.
Subsequently, a fragment having a length of about 2700 bp (containing a Wnt-responsive sequence and a luciferase gene), which was prepared by cleaving from a TOPglow plasmid contained in a TOPglow/FOPglow TCF Reporter Kit (upstate Catalog#17-366) with restriction enzymes HindIII and KpnI, was inserted between HindIII and KpnI in pNeo-HKS, thereby producing a plasmid pNeo-TOP. The plasmid pNeo-TOP was introduced into human fetus-derived renal cell strain HEK293, then a compound was selected using G418, and then a cell clone strain was established by a limiting dilution method. The cell clone strain was subjected to a Wnt signal detection test.
The cell clone strain was subcultured in a D-MEM glucose-rich culture medium (Wako Pure Chemical Industries, Ltd.) containing 10% FBS, and cells in a growth phase were used in the test. Cells were collected using trypsin-EDTA, the number of the cells was counted, and then the cells were suspended in a D-MEM glucose-rich culture medium containing 10% FBS so that the number of cells became 2×10^5 cells/mL. The cell suspension was added to a 96-well cell culture plate (Greiner Bio-One Co., Ltd., product number: 655083) in an amount of 0.1 mL/well and then cultured overnight in a 5% CO2 incubator (37° C.). After the culturing, a substance to be tested, which was dissolved in DMSO, was diluted with a D-MEM glucose-rich culture medium containing 10% of FBS and 80 mM of LiCl to produce a sample solution. The sample solution (0.1 mL) was added to each well and then cultured in a 5% CO2 incubator (37° C.) […]. Six hours after the addition of the sample solution, a supernatant was removed from each well, and then 50 μL of Bright-Glo™ Luciferase substrate (Promega, product number: E2620) was added thereto. The plate was put on a plate mixer for several seconds, and then the emission of light from each well was measured using a EnVision™ Multilabel plate reader (PerkinElmer Co., Ltd.). The Wnt signal activation rate (%) of each well was determined, and a concentration (IC50) which is required for inhibiting the Wnt signal activity of a substance of interest by 50% was calculated, wherein the luminosity of a well to which a sample solution was not added and LiCl was added was defined as a 100% Wnt signal activity and the luminosity of a well to which either of a sample solution or LiCl was not added was defined as a 0% Wnt signal activity.

[2] = PAMPA test (parallel artificial membrane permeability assay); format: in vitro ADME; details: phosphate buffer pH 6.8, about 200 μM, about 5 hours, room temperature, read-out: Test Example 4 membrane permeation coefficient Pe
Description: A test solution (see below) was stirred while shaking at room temperature for about 5 hours using a 96-well PAMPA plate (BD Biosciences) in which a lipid had been precoated onto a polyvinylidene fluoride (PVDF) film to evaluate the membrane permeation coefficient Pe (cm/s) of each compound dissolved in the test solution (concentration: about 200 μM) upon the transport of the compound from a donor side to an acceptor side through a lipid membrane. The Pe value was calculated in accordance with equations 1 and 2, and the concentration of the compound on the donor side and the acceptor side was measured by a HPLC-UV method. In 0.3 mL of the test solution on the donor side is contained about 1% (v/v) of DMSO, since 3 μL of a DMSO solution containing the compound at a concentration of 20 mM was added to the test solution.
Test solution: a phosphate buffer solution having a pH value of 6.8 (90 mM of phosphate, 48 mM of NaCl, 5.4 mM of KCl)
Conditions for stirring: a multishaker MS-300 (AS ONE Corporation), 350 rpm
[formula] CD(t): compound concentration in donor well at time t CA(t): compound concentration in acceptor well at time t VD: donor well volume (0.3 mL) VA: acceptor well volume (0.2 mL) A: filter area (0.3 cm^2)

[3] = Evaluation of metabolic stability; format: in vitro ADME, human; details: 0.2 mg/mL HLM, 0.1 μM test substance, 15 minutes at 37° C., with vs without NADPH production
Description: A test substance was dissolved in DMSO so that the concentration of the resultant solution became 20 mM, and the solution was diluted with DMSO so that the concentration of the resultant solution became 1 mM. The metabolic stability of the test substance was evaluated using a human liver microsome (HLM) in which human liver was pooled. An assay buffer solution contained 0.2 mg/mL of HLM, a 0.1 M of phosphate potassium buffer solution (pH 7.4), 0.1 mM of EDTA, 0.33 mM of NADP+, 8 mM of glucose-6-phosphate, 0.1 U/mL of glucose-6-phosphate dehydrogenase, 6 mM of MgCl2, 0.1 μM of a test substance (final concentration in DMSO: 0.01%) in 0.15 mL of the final incubation volume. Fifteen minutes after the initiation of the reaction at 37° C., 0.15 mL of a acetonitrile/methanol mixed solution (7:3, by volume) was added to the solution to terminate the reaction. After centrifugation, the resultant supernatant was analyzed by LC-MSMS, peak areas were compared under the presence or absence of the production of NADPH, and the residual ratio of the test substance was calculated.

[4] = Evaluation of solubility (DMSO stock into PBS, HPLC-UV); format: physicochemical; details: Dulbecco's phosphate-buffered saline pH 7, room temperature, about 15 minutes shaking, values greater than 200 μM regarded as 200 μM, read-out: Test Example 3 solubility
Description: To 0.25 mL of a test solution a mentioned below was added 2.5 μL of a DMSO solution having a compound concentration of 20 mM. The resultant solution was shaken at room temperature for about 15 minutes (the conditions for the shaking are mentioned below). Subsequently, a supernatant was collected by a suction filtration under a reduced pressure. A DMSO solution having a compound concentration of 200 μM was used as a standard solution, and the concentration of a compound in a filtrate which was quantified by a HPLC-UV method was employed as a solubility (rounded off to the whole number). In this evaluation, since a value 200 μM became the upper limit operationally, all of quantification values greater than 200 μM were regarded as 200 μM.
Test solution: GIBCO (registered trade name) Dulbecco's phosphate-buffered saline (pH 7, Life Technologies Corporation)
Conditions for shaking: a microplate shaker N-704 (Nissinrika Corporation), speed 6

[5] = aqueous buffer, kinetic from dmso stock

Row | IC50 [1] | Papp [2] | Test Example 2 residual ratio of the test substance [3] | solubility [4, 5] | solubility [4] | SMILES
1 | 210 nM | 0.89 ×10⁻⁶ cm/s | 60% | 195 µM (≈ 145 µg/mL) |  | C=CCN1CC(=O)N2[C@@H](Cc3c(F)cc(O)cc3F)C(=O)N(Cc3cccc(N4CC(N5CCN(C)C[C@@H]5C)C4)n3)C[C@@H]2N1C(=O)NCc1ccccc1 [Example 17, (6S,9aS)-N-Benzyl-6-((2,6-difluoro-4-hydroxyphenyl)methyl)-8-((6-(3-((2S)-2,4-dimethylpiperazin-1-yl)azetidin-1-yl)pyridin-2-yl)methyl)-4,7-dioxo-2-(prop-2-en-1-yl)-octahydro-1H-pyrazino[2,1-c][1,2,4]triazine-1-carboxamide]
2 | 320 nM | 1.13 ×10⁻⁶ cm/s | 37% |  | 200 µM (≈ 144 µg/mL) | C=CCN1CC(=O)N2[C@@H](Cc3ccc(O)cc3)C(=O)N(Cc3cccc(N4CC(N5CCN(CC)[C@@H](C)C5)C4)n3)C[C@@H]2N1C(=O)NCc1ccccc1 [Example 18, (6S,9aS)-N-Benzyl-8-((6-(3-((3S)-4-ethyl-3-methylpiperazin-1-yl)azetidin-1-yl)pyridin-2-yl)methyl)-6-((4-hydroxyphenyl)methyl)-4,7-dioxo-2-(prop-2-en-1-yl)-octahydro-1H-pyrazino[2,1-c][1,2,4]triazine-1-carboxamide]
3 | 230 nM | 0.91 ×10⁻⁶ cm/s | 30% |  | 200 µM (≈ 144 µg/mL) | C=CCN1CC(=O)N2C(CN(Cc3cccc(N4CC(N5CCN(CC)[C@H](C)C5)C4)n3)C(=O)[C@@H]2Cc2ccc(O)cc2)N1C(=O)NCc1ccccc1 (stereo partly drawn) [Example 19, (6S,9aS)-N-Benzyl-8-((6-3-((3R)-4-ethyl-3-methylpiperazin-1-yl)azetidin-1-yl)pyridin-2-yl)methyl-6-((4-hydroxyphenyl)methyl)-4,7-dioxo-2-(prop-2-en-1-yl)-octahydro-1H-pyrazino[2,1-c][1,2,4]triazine-1-carboxamide]
4 | 61 nM | 2.17 ×10⁻⁶ cm/s | 23% | 197 µM (≈ 146 µg/mL) |  | C=CCN1CC(=O)N2[C@@H](Cc3ccc(O)cc3F)C(=O)N(Cc3cccc(N4CC(N5CCN(CC)[C@@H](C)C5)C4)n3)C[C@@H]2N1C(=O)NCc1ccccc1 [Example 20, (6S,9aS)-N-Benzyl-8-((6-(3-((3S)-4-ethyl-3-methylpiperazin-1-yl)azetidin-1-yl)pyridin-2-yl)methyl)-6-((2-fluoro-4-hydroxyphenyl)methyl)-4,7-dioxo-2-(prop-2-en-1-yl)-octahydro-1H-pyrazino[2,1-c][1,2,4]triazine-1-carboxamide]
5 | 63 nM | 1.47 ×10⁻⁶ cm/s | 23% |  | 200 µM (≈ 148 µg/mL) | C=CCN1CC(=O)N2[C@@H](Cc3ccc(O)cc3F)C(=O)N(Cc3cccc(N4CC(N5CCN(CC)[C@H](C)C5)C4)n3)C[C@@H]2N1C(=O)NCc1ccccc1 [Example 21, (6S,9aS)-N-Benzyl-8-((6-(3-((3R)-4-ethyl-3-methylpiperazin-1-yl)azetidin-1-yl)pyridin-2-yl)methyl)-6-((2-fluoro-4-hydroxyphenyl)methyl)-4,7-dioxo-2-(prop-2-en-1-yl)-octahydro-1H-pyrazino[2,1-c][1,2,4]triazine-1-carboxamide]
6 | 180 nM | 0.57 ×10⁻⁶ cm/s | 43% |  | 200 µM (≈ 152 µg/mL) | C=CCN1CC(=O)N2[C@@H](Cc3c(F)cc(O)cc3F)C(=O)N(Cc3cccc(N4CC(N5CCN(CC)[C@@H](C)C5)C4)n3)C[C@@H]2N1C(=O)NCc1ccccc1 [Example 22, (6S,9aS)-N-Benzyl-6-((2,6-difluoro-4-hydroxyphenyl)methyl)-8-((6-(3-((3S)-4-ethyl-3-methylpiperazin-1-yl)azetidin-1-yl)pyridin-2-yl)methyl)-4,7-dioxo-2-(prop-2-en-1-yl)-octahydro-1H-pyrazino[2,1-c][1,2,4]triazine-1-carboxamide]
7 | 190 nM | 0.43 ×10⁻⁶ cm/s | 38% | 195 µM (≈ 148 µg/mL) |  | C=CCN1CC(=O)N2[C@@H](Cc3c(F)cc(O)cc3F)C(=O)N(Cc3cccc(N4CC(N5CCN(CC)[C@H](C)C5)C4)n3)C[C@@H]2N1C(=O)NCc1ccccc1 [Example 23, (6S,9aS)-N-Benzyl-6-((2,6-difluoro-4-hydroxyphenyl)methyl)-8-((6-(3-((3R)-4-ethyl-3-methylpiperazin-1-yl)azetidin-1-yl)pyridin-2-yl)methyl)-4,7-dioxo-2-(prop-2-en-1-yl)-octahydro-1H-pyrazino[2,1-c][1,2,4]triazine-1-carboxamide]
8 | 77 nM | 1.91 ×10⁻⁶ cm/s | 26% |  | 200 µM (≈ 145 µg/mL) | C=CCN1CC(=O)N2[C@@H](Cc3ccc(O)cc3)C(=O)N(Cc3ccc(F)c(N4CC(N5CCN(C)[C@H](C)C5)C4)n3)C[C@@H]2N1C(=O)NCc1ccccc1 [Example 24, (6S,9aS)-N-Benzyl-8-((6-(3-((3R)-3,4-dimethylpiperazin-1-yl)azetidine-1-yl)-5-fluoropyridin-2-yl)methyl)-6-((4-hydroxyphenyl)methyl)-4,7-dioxo-2-(prop-2-en-1-yl)-octahydro-1H-pyrazino[2,1-c][1,2,4]triazine-1-carboxamide]

— US9174998B2, “(6S,9aS)-N-benzyl-6-[(4-hydroxyphenyl)methyl]-4,7-dioxo-8-({6-[3-(piperazin-1-yl)azetidin-1-yl]pyridin-2-yl}methyl)-2-(prop-2-en-1-yl)-octahydro-1H-pyrazino[2,1-c][1,2,4]triazine-1-carboxamide compound” (Eisai R&D Management Co., Ltd., priority 2013, dated 2015)
